One block for each compound: values may come before it. Non-standard residues stand in square brackets, D forms with d. Residues, ends and D or L forms follow the SMILES beside them.
Experiments:
[1] = pH 7.4; without Zn2+; cited from earlier work
Description: Table 2 Comparison of catalytic performance with literature data on short peptides without Zn^2+. | column: kcat/KM (s^−1M^−1)

[2] = cited from earlier work
Description: However, at present, it is still not possible to predict exactly the performance of a de novo designed peptide. Amongst the various approaches to achieve a self-assembling short peptide, an attractive strategy features the inclusion of both D- and L-amino acids at specific positions along a heterochiral sequence, whereby nanostructured hydrogels can be formed even with just three amino acids, while their homochiral isomers typically precipitate in water. These supramolecular systems feature amphipathic assemblies, whereby the different stereoconfiguration allows displaying hydrophobic s ...

[3] = water solubility (observation); type: physicochemical; details: neutral pH
oscillatory rheometry = type: physicochemical; details: 10 mM; 1 Hz; 25 °C
Procedure: His–Leu–^DLeu–Ile–His–Leu–^DLeu–Ile (Scheme 1) was synthesized in solid phase and purified by reverse-phase HPLC, following published procedures. Peptide identity and purity was confirmed by ^1H-NMR and electrospray ionization (ESI)-MS (see Supplementary Materials). […] A pH change to neutral was then used to trigger fibrillization, which, at higher concentrations, led to the formation of self-supportive hydrogels, with a minimum gelling concentration (mgc) of 10 mM. The viscoelastic properties of the hydrogel were assessed by oscillatory rheometry (see Supplementary Materials). At mgc, the peptide gelled immediately and reached a G′ of 1 kPa, which remained stable over time. Frequency sweeps confirmed G′ > G″, with both values being independent of applied frequency, as expected for a stable hydrogel. Stress sweeps confirmed a linear viscoelastic region until 1 Pa, with a gel-to-sol transition occurring above 10 Pa.
Dynamic time sweep rheological analysis was conducted on a Malvern Kinexus Ultra Plus Rheometer (Alfatest, Milan, Italy) with a 20-mm stainless-steel parallel plate geometry. […] Samples were prepared in situ and immediately analyzed with a gap of 1 mm. Time sweeps were recorded using a frequency of 1 Hz and a controlled stress of 0.50 Pa. Frequency sweeps were recorded using a controlled stress of 0.50 Pa, and then stress sweeps were recorded using a frequency of 1 Hz.

Compound: H2KLLLAAA(Nε-palmytoyl)K-NH2 [peptide amphiphile reported by Guler and Stupp]
kcat/KM [1]: 20 s^−1M^−1

Compound: His–^DPhe–^DPhe
concentration of hydrogel formation [2]: 50000 µM

Compound: HSGQQKFQFQFEQQ [self-assembling His peptide, literature catalyst]
kcat/KM [1]: 0.09 s^−1M^−1

water solubility [3]: limited water solubility | gel-to-sol transition (stress sweep) (oscillatory rheometry): above 10 Pa
Compound: CC[C@H](C)[C@H](NC(=O)[C@@H](CC(C)C)NC(=O)[C@H](CC(C)C)NC(=O)[C@H](Cc1c[nH]cn1)NC(=O)[C@@H](NC(=O)[C@@H](CC(C)C)NC(=O)[C@H](CC(C)C)NC(=O)[C@@H](N)Cc1c[nH]cn1)[C@@H](C)CC)C(=O)O [His–Leu–^DLeu–Ile–His–Leu–^DLeu–Ile] (H-HL[dL]IHL[dL]I-OH)

— publication PMC7411710, “Biocatalysis of D,L-Peptide Nanofibrillar Hydrogel” (Molecules, 2020)
